# Reference: ChEMBL document CHEMBL1201862, “PubChem BioAssay data set” (2004)
# Active and inactive are the calls of the source.
# Key:
# Troponin, cardiac muscle = Troponin, cardiac muscle (Homo sapiens, UniProt P19429+P45379+P63316); assay: Fluorescence-based biochemical high throughput dose response assay for activators of the calcium sensitivity of cardiac Regulated Thin Filaments (RTF). [Related pubchem assays (depositor defined):AID493008, AID493018, AID504382, AID504383]; format: protein-complex assay
# [1] = DRD fibroblast viability loss – cell-based, non-viral oncogenic, luminescence, dose response (AID 1934); format: functional; conditions: Homo sapiens
# [2] = (§1) Late stage assay provider results from the probe development effort to identify inhibitors of GSTO1: luminescence-based biochemical dose response assay to determine cytotoxicity of inhibitor compounds. [Related pubchem assays (depositor defined):AID1515, AID1974, AID2175, AID2176, AID463081, AID463098, AID463101, AID463102, AID463110, AID463142] Panel member name: Assay 2: % Surviving cells, media plus FCS; format: toxicity, cell-based
# Paired box protein Pax-8 = Paired box protein Pax-8 (Homo sapiens, UniProt Q06710); assay: PAX8 transcriptional activity inhibition in RMG-I – RMG-I cells, luciferase, cherry-pick, dose response (AID 687027); format: functional, cell-based;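 also: luciferase reporter driven by Pax8 target thyroperoxidase promoter measured by SteadyGlo luminescence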
# [3] = general cell-killing toxicity readout – plate reader, dry powder samples, cytotoxicity control for PAX8 inhibitor project, dose response (AID 743021); format: functional, cell-based
# [4] = as §1, with “1:” for “2:”, “cells, serum-free” for “cells,”, “media” for “media plus FCS”; format: toxicity, cell-based
# Protein RecA = target: T1, Protein RecA (Mycobacterium tuberculosis, UniProt P9WHJ3); assay: Fluorescence Cell-Free Homogeneous Dose Retest to Identify Inhibitors of RecA-Intein Splicing Activity. [Related pubchem assays (depositor defined):AID2097, AID2223, AID489010, AID492950]; format: functional
# T1 sequence (P9WHJ3 whole entry): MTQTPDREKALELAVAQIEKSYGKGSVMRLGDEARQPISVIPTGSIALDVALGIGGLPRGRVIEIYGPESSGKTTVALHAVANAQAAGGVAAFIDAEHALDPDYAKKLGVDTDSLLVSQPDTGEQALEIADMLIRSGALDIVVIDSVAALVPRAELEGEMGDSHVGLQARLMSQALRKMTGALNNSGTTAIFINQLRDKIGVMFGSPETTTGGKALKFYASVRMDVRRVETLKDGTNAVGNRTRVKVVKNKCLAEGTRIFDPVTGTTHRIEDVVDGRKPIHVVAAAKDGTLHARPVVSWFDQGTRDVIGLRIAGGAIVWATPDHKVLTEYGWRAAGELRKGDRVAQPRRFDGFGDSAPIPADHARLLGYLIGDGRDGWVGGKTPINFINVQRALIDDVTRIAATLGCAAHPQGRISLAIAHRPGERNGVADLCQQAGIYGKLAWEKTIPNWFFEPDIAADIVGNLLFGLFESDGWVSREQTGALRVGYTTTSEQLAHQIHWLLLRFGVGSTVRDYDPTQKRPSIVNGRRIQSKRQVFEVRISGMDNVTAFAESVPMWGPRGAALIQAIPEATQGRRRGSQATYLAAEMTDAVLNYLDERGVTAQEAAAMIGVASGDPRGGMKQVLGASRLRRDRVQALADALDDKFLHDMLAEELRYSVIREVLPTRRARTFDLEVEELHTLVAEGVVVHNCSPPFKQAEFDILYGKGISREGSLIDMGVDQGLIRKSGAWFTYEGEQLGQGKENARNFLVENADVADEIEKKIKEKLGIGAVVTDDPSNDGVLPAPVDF
# [5] = target: T2, Microphthalmia-associated transcription factor (Homo sapiens, UniProt O75030); assay: reducers of TRPM1 reporter luminescence, concentration series – cell-based, SK-MEL-5, cherry-picked, set 3, MITF inhibitor project, dose response (AID 493073); format: functional;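 also: SK-MEL-5 melanoma cells with luciferase driven by the MITF target TRPM1 promoter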
# T2 sequence (O75030 whole entry): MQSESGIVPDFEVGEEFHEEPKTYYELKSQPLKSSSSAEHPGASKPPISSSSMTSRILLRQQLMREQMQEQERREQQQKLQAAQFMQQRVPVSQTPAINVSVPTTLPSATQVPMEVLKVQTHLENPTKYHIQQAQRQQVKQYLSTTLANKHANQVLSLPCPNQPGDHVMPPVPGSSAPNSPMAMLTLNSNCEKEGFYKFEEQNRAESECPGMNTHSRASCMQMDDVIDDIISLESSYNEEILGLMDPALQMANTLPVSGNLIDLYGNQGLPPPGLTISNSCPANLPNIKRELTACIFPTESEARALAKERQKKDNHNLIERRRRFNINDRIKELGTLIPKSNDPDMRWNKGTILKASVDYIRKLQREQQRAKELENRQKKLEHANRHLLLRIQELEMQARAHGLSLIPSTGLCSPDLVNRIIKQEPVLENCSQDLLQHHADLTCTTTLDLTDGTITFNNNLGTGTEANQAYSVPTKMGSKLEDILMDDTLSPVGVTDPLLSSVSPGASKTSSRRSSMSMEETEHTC
# BJ [6] = assay: BJ-TERT-LT-ST fibroblast viability loss – cell-based, RAS-independent, luminescence, dose response (AID 1935); format: functional; conditions: Homo sapiens;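 also: BJ fibroblasts immortalized with TERT plus LT and ST oncogenes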
# BJ [7] = assay: cells; format: functional, cell-based; conditions: Homo sapiens
# BJ [8] = assay: BJ-TERT fibroblast viability loss – cell-based, RAS-independent, luminescence, dose response (AID 1933); format: functional; conditions: Homo sapiens
# [9] = target: T3, Replicative DNA helicase DnaB (Mycobacterium tuberculosis, UniProt P9WMR3); assay: DnaB intein splicing inhibitors, dose response, biochemical, cell-free fluorescence (AID 449749); format: functional
# T3 sequence (P9WMR3 whole entry): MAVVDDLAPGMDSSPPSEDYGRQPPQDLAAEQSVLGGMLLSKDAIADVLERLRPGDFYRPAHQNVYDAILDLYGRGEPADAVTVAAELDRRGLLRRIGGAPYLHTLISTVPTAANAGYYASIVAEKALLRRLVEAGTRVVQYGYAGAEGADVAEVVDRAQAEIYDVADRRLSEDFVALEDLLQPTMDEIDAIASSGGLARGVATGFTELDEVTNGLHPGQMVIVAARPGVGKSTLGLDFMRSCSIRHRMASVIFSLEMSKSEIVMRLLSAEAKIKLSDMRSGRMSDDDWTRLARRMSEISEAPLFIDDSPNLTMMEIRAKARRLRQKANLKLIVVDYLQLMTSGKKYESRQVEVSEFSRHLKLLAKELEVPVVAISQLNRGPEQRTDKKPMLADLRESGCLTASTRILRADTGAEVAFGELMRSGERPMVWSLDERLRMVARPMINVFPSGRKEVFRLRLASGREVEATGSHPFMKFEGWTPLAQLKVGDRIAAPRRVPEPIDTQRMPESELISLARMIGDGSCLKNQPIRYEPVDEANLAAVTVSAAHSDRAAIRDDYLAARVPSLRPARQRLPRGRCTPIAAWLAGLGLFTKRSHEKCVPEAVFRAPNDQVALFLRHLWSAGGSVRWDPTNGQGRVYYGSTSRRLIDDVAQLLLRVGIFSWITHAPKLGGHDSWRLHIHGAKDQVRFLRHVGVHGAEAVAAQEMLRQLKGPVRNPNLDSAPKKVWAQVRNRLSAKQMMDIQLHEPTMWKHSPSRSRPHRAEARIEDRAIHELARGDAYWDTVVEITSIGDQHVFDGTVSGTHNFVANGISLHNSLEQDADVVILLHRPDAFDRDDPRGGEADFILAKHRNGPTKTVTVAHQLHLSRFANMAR
# [10] = target: Glutathione S-transferase omega-1 (Homo sapiens, UniProt P78417); assay: IC50 of human GSTO1 inhibition by gel ABPP – biochemical, SE-Rh probe, in-gel fluorescence, powder samples, late-stage follow-up (AID 463081); format: functional
# [11] = target: T4, Corticotropin-releasing factor receptor 2/Corticotropin-releasing factor-binding protein (Homo sapiens, UniProt P24387+Q13324); assay: activators of CRF receptor 2 with binding protein – uHTS hits, confirmation (AID 602473); format: functional; conditions: read-out: EC50_Mean
# T4 sequence (Q13324 whole entry): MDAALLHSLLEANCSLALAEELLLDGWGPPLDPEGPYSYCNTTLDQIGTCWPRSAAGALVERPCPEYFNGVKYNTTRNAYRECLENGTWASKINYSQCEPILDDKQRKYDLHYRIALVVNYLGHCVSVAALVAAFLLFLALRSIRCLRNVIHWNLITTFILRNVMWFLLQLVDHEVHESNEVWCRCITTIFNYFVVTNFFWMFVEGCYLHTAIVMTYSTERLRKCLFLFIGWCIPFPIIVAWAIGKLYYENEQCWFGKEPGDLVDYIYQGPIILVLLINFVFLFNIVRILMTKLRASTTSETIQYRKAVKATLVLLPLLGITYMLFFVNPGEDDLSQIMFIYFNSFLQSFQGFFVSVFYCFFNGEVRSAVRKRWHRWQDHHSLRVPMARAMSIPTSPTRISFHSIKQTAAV
# T4 sequence (P24387 whole entry): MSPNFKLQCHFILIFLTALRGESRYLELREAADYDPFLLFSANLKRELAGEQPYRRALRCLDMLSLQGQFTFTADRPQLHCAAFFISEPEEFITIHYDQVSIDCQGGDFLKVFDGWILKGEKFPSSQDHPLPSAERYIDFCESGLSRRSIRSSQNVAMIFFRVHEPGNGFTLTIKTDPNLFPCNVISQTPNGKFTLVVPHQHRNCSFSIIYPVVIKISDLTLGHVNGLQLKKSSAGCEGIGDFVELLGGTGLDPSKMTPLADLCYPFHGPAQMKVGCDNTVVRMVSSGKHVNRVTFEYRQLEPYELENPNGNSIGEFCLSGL
# Coagulation factor XII [12] = target: T5, Coagulation factor XII (Homo sapiens, UniProt P00748); assay: Factor XIIa Dose Response Confirmation from Single Well HTS. [Related pubchem assays (depositor defined):AID701]; format: functional
# T5 sequence (P00748 whole entry): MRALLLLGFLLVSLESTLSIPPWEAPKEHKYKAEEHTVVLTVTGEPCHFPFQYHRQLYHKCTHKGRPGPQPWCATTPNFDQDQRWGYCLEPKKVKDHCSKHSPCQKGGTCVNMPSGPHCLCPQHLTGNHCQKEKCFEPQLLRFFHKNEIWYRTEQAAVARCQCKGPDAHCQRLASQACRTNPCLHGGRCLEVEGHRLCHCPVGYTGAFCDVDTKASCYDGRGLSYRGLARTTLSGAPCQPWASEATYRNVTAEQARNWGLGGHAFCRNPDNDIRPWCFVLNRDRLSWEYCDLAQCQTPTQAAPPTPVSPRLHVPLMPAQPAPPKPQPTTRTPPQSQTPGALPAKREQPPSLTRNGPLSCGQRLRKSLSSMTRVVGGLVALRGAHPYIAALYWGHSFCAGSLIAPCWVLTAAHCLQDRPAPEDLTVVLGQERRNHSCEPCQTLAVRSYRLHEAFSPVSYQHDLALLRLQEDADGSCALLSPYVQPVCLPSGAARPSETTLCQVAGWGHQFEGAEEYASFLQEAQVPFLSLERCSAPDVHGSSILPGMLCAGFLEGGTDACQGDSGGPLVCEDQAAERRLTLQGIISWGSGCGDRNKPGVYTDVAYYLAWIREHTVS
# Coagulation factor XII [13] = target: T5, Coagulation factor XII; assay: activated coagulation factor XII inhibitor potency, concentration-effect curve, cell-free (AID 716); format: functional
# [14] = target: Delta-type opioid receptor (Homo sapiens, UniProt P41143); assay: SAR Analysis of Antagonists of the DOR Receptor using an Image-Based Assay - Set 3. [Related pubchem assays (depositor defined):AID1777, AID1785]; format: functional;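 also: U2OS cells expressing DOR1 and beta-arrestin GFP stimulated with 100 nM SNC80; imaging of GFP-tagged beta-arrestin moving into spots after receptor activation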
# Mu-type opioid receptor = Mu-type opioid receptor (Homo sapiens, UniProt P35372); assay: SAR Analysis of Antagonists of the MOR Receptor using an Image-Based Assay - Set 3. [Related pubchem assays (depositor defined):AID1777, AID1785, AID1786, AID1966, AID2133, AID2136, AID2284, AID2285, AID2420]; format: functional
# [15] = target: T6, Kappa-type opioid receptor (Homo sapiens, UniProt P41145); assay: SAR analysis of small molecule antagonists of the kappa opioid receptor via a luminescent beta-arrestin assay - Set 3. [Related pubchem assays (depositor defined):AID1777, AID1778, AID1785, AID1786, AID1966, AID2133, AID2136, AID2285, AID2495]; format: functional
# [16] = target: T6, Kappa-type opioid receptor; assay: SAR analysis of Antagonists of the Kappa Opioid Receptor (KOR) using an Image-Based Assay - Set 3. [Related pubchem assays (depositor defined):AID1777, AID1785]; format: functional
smiles,measurement,setting,value
O=C(COc1ccccc1F)NC1CC1,EC50,"Troponin, cardiac muscle",> 71.5 µM (inactive)
COc1ccc(N(C(=O)CCl)C(C(=O)NC2CCCCC2)c2cccnc2)cc1 (stereo not given),EC50,[1],2.63 µM (inconclusive)
same,CC50,[2],> 35 µM (inactive)
same,AC50,Paired box protein Pax-8,1.3 µM (active)
same,AC50,[3],3.18 µM (active)
same,CC50,[4],> 45 µM (inactive)
same,EC50,Protein RecA,0.619 µM (active)
same,AC50,[5],5.87 µM (active)
same,EC50,BJ [6],7.37 µM (inconclusive)
same,EC50,BJ [7],4.5 µM (active)
same,EC50,BJ [8],1.01 µM (active)
same,AC50,[9],7.67 µM (active)
same,IC50,[10],0.067 µM (active)
CCn1c(C)c(C(C)=O)c(N2CCN(c3ccccc3)CC2)nc1=S,EC50,[11],> 53 µM (inactive)
same,IC50,Coagulation factor XII [12],> 50 µM (inactive)
NC(=O)Cn1cnc(-c2ccccc2)c1,IC50,Coagulation factor XII [13],> 50 µM (inactive)
O=C(Cn1c(=O)c2cccn2c2cccnc21)NCCCN1CCOCC1,IC50,[14],> 32 µM (inactive)
same,IC50,Mu-type opioid receptor,> 32 µM (inactive)
same,IC50,[15],> 20 µM (inactive)
same,IC50,[16],> 32 µM (inactive)
